Results published in patent US9440983B2, “Pyrrolo[3,2-d]pyrimidine-2,4(3H,5H)-dione derivatives” (Hydra Biosciences, Inc., priority 2014, dated 2016).

What was measured:
[1] = biological target: T1, TRPC5 channel (Homo sapiens, UniProt Q9UL62); test: High throughput screening assay: Fluo4 cell-based fluorescence detection of intracellular Ca2+ rise; settings: HEK293/TREx cells inducibly expressing TRPC5, high-Ca2+ Ringer (14 mM Ca2+), 7 concentrations in triplicate
T1 construct: expressed in transfected cells; host or cells: HEK293/TREx (Invitrogen), stably transfected, tetracycline-induced
T1 sequence (Q9UL62 1-973): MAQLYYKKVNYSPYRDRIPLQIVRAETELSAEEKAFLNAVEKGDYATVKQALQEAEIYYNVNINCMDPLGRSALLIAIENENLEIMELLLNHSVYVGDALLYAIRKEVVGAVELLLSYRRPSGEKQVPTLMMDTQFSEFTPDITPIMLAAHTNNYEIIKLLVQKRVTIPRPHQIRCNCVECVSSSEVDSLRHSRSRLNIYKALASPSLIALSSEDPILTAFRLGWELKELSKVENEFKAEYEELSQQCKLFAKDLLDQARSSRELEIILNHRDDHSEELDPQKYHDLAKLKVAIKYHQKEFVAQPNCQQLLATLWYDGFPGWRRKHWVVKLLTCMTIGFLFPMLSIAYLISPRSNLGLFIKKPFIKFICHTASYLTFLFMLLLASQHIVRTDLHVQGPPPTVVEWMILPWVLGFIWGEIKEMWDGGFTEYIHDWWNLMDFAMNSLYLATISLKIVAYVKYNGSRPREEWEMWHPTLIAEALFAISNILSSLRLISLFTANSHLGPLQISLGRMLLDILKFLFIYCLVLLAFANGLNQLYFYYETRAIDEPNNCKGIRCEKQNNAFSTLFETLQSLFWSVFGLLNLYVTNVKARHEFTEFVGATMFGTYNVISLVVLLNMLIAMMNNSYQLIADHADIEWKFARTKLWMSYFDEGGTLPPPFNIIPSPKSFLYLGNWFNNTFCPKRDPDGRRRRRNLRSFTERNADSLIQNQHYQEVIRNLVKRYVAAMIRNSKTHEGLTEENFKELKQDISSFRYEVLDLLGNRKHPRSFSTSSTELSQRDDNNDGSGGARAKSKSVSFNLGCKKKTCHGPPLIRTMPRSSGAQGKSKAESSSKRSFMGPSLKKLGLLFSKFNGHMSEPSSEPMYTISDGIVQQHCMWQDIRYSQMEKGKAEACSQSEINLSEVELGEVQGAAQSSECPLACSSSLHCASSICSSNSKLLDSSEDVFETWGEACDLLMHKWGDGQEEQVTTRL
Description: The assay depended on detection of the rise in intracellular Ca2+ concentration ([Ca2+]i) following channel activation in cells inducibly expressing the TRPC5 channel. Ca2+ rise was quantified with the use of fluorescent Ca2+ indicators that were loaded into cells and thereafter indicated the [Ca2+]i Ca2+ influx followed activation of the TRPC5 channel. Compounds inhibiting the [Ca2+]i rise were considered hits for further investigation.
The commercially available HEK293/TREx line (Invitrogen) was stably transfected with a TRPC5 construct and screened by conventional calcium imaging to find clones with TRPC5 expression following stimulation with 1 μg/ml tetracycline. These cells were maintained in the growth medium recommended by the manufacturer supplemented with 100 μg/ml hygromycin to promote retention of the TRPC5 construct. After growing to near confluency, cells were plated at a density of ˜35,000 cells/well in 384 well CellBind plates (Corning) in the presence of 1 μg/ml tetracycline, and allowed to grow for 20-30 hrs. A nearly confluent monolayer resulted. Cells were then loaded with Ca2+ dye: Fura-2/AM or Fluo4/AM was added to the wells to a final concentration of 4 μM or 0.5 μM, respectively, and incubated for 80 min or 60 min, respectively, at room temperature. Supernatant was then removed from the cells by inverting plates with a sharp flick, and 25 μl Hank's Balanced Salt Solution (HBSS; 0.185 g/l D-glucose, 0.9767 g/l MgS04 (anhydrous), 0.4 g/l KCl, 0.06 g/l KH2PO4 (anhydrous), 0.35 g/l NaHCO3, 8.0 g/l NaCl, and 0.04788 g/l Na2HPO4 (anhydrous); pH 7.4) was then added to each well. Following ˜0.5 hour for recovery from loading, cells were assayed using the Hamamatsu FDSS 6000 system, which permitted illumination alternately at 340 nm and 380 nm for Fura-2 experiments, or at 485 nm for Fluo4 experiments. Frames were acquired at a rate of 0.2 Hz. During the assay, the plates were continuously vortexed, with pipette mixing of wells following addition of each reagent. For the screening assay, 26 μl of a diluted compound stock (at 50 μM) was added to each well for 2 minutes following the collection of a short (4 frame) baseline. 13 μl 62 mM high-Ca2+ Ringer solution (4.17 ml of normal ringer (with 2 mM Ca2+) plus 5.83 ml of isotonic calcium ringer (105 mM Ca2+; in this ringer all sodium has been replaced with calcium)) was then added to each well, achieving a final concentration of 14 mM Ca2+ and 10 μM test compound. Data was collected for ˜3 minutes following addition of high Ca2+Ringer, where the fluorescent intensity (for Fluo4) and the F340/F380 ratio (for Fura-2) were proportional to the [Ca2+]i Negative controls consisted of HEK293/TREx TRPC5 cells exposed to high Ca2+ solution, but no compound. Positive control conditions consisted of addition of 2-APB, a promiscuous blocker of TRPC5 and other channels, to columns 23 and 24 of the plates, to a final concentration of 200 μM. These controls defined a screening window, and “hits” were defined as those compounds inhibiting the fluorescence response by at least 40%. IC50 values were determined for compounds defined as “hits.” The Fluo4 cell-based fluorescence assay was used to determine the intracellular Ca2+ concentration in the presence of varying drug concentration. Final concentrations of compounds tested were 20 μM, 6.667 μM, 2.222 μM, 0.741 μM, 0.247 μM, 0.082 μM, and 0.027 μM. Compounds were tested in triplicate at all concentrations. Standard software was used to fit IC50 curves.
Additionally or alternatively, efficacy can be represented as % inhibition in the presence (of a given concentration of compound) versus the absence of compound or in comparison to a control compound. For example, efficacy can be represented as % inhibition of ion flux in the presence versus the absence of compound.

[2] = biological target: T1, TRPC5 channel; test: Whole-cell patch clamp experiments, TRPC5 current; assay type: cell-based; settings: whole-cell patch clamp in TRPC5-expressing HEK293 TREx cells; current activated by LaCl3; IC50 estimated
Description: Patch clamp experiments permit the detection of currents through the TRPC5 channel in the cell line described above. In normal whole-cell patch clamp recordings, a glass electrode is brought into contact with a single cell and a high-resistance (gigaohm) seal is established with the cell membrane. The membrane is then ruptured to achieve the whole-cell configuration, permitting control of the voltage of the cell membrane and measurement of currents flowing across the membrane using the amplifier attached to the electrode and resulting in the replacement of cytoplasm with the pipette solution. A perfusion system permits control of the extracellular solution, including the addition of blockers and activators of the current. The current can be activated by including 1.4 μM free Ca^2+ in the pipette (intracellular) solution, and 80 μM LaCl3 in the extracellular solution. TRPC5 cells were induced 20-48 hours, removed from growth plates, and replated at low density (to attain good single-cell physical separation) on glass coverslips for measurement. In some cases, cells were grown in low density overnight on glass coverslips. […] Currents elicited were quantified at −80 mV and +80 mV. The internal solution consisted of 140 mM cesium aspartate, 10 mM HEDTA, 2 mM CaCl2, 2.27 mM MgCl2 and 10 mM HEPES, pH 7.2, with 1,400 nM calculated free Ca^2+. […]

SMILES	IC50 [1]	IC50 [2]
Cc1c(-c2cccc(OC(F)(F)F)c2)n(Cc2ccc(Cl)cc2)c2c(=O)n(CCCO)c(=O)n(C)c12 [Compound 29, 5-(4-chlorobenzyl)-3-(3-hydroxypropyl)-1,7-dimethyl-6-(3-(trifluoromethoxy)phenyl)-1H-pyrrolo[3,2-d]pyrimidine-2,4(3H,5H)-dione]	421 nM	–
Cn1c(=O)n(CCCO)c(=O)c2c1cc(-c1cccc(Cl)c1)n2Cc1ccc(Cl)cc1 [Compound 30, 5-(4-chlorobenzyl)-6-(3-chlorophenyl)-3-(3-hydroxypropyl)-1-methyl-1H-pyrrolo[3,2-d]pyrimidine-2,4(3H,5H)-dione]	503 nM	1.14 nM
Cn1c(-c2cccc(OC(F)(F)F)c2)cc2c1c(=O)n(CCCO)c(=O)n2C [Compound 32, 3-(3-hydroxypropyl)-1,5-dimethyl-6-(3-(trifluoromethoxy)phenyl)-1H-pyrrolo[3,2-d]pyrimidine-2,4(3H,5H)-dione]	2940 nM	–
Cc1c(-c2cccc(OC(F)(F)F)c2)n(C)c2c(=O)n(CCCO)c(=O)n(C)c12 [Compound 33, 3-(3-hydroxypropyl)-1,5,7-trimethyl-6-(3-(trifluoromethoxy)phenyl)-1H-pyrrolo[3,2-d]pyrimidine-2,4(3H,5H)-dione]	832 nM	–
Cc1cn(Cc2ccc(Cl)cc2)c2c(=O)n(CCCO)c(=O)n(C)c12 [Compound 34, 5-(4-chlorobenzyl)-3-(3-hydroxypropyl)-1,7-dimethyl-1H-pyrrolo[3,2-d]pyrimidine-2,4(3H,5H)-dione]	3080 nM	–
Cn1c(=O)n(CCCO)c(=O)c2c1cc(-c1cccc(OC(F)(F)F)c1)n2Cc1ccc(Cl)cc1 [Compound 35, 5-(4-chlorobenzyl)-3-(3-hydroxypropyl)-1-methyl-6-(3-(trifluoromethoxy)phenyl)-1H-pyrrolo[3,2-d]pyrimidine-2,4(3H,5H)-dione]	780 nM	–
Cc1c(-c2cccc(OC(F)(F)F)c2)[nH]c2c(=O)n(CCCO)c(=O)n(C)c12 [Compound 36, 3-(3-hydroxypropyl)-1,7-dimethyl-6-(3-(trifluoromethoxy)phenyl)-1H-pyrrolo[3,2-d]pyrimidine-2,4(3H,5H)-dione]	7540 nM	–
Cn1c(=O)n(CCCO)c(=O)c2c1c(-c1cccc(Cl)c1)cn2Cc1ccc(Cl)cc1 [Compound 37, 5-(4-chlorobenzyl)-7-(3-chlorophenyl)-3-(3-hydroxypropyl)-1-methyl-1H-pyrrolo[3,2-d]pyrimidine-2,4(3H,5H)-dione]	408 nM	< 1 nM
